We go through 16 molecules from patent US20130035326A1 (AMBIT BIOSCIENCES CORPORATION, priority 2009, published 2013).

The target in one assay is T1, KIT kinase (Homo sapiens, UniProt P10721).
T1 construct: made in house; host or cells: T7 phage display or HEK-293 cells
The experiment in a line: Competition binding assay, KIT Kd. The procedure:
(§1) In certain embodiments, competition binding assays were performed as described in Fabian et al., Nature Biotechnology 2005, 23,329-336.
(§2) Competition binding assays used herein were developed, validated and performed as described in Fabian et al., Nature Biotechnology 2005, 23,329-336. Kinases were produced as fusions to T7 phage (See, Fabian et al. or WO04/015142) or alternatively, the kinases were expressed in HEK-293 cells and subsequently tagged with DNA for PCR detection (See, WO08/005,310). For the binding assays, streptavidin-coated magnetic beads were treated with biotinylated affinity ligands for 30 min at room temperature to generate affinity resins. The liganded beads were blocked with excess biotin and washed with blocking buffer (SeaBlock (Pierce), 1% BSA, 0.05% Tween 20, 1 mM DTT) to remove unbound ligand and to reduce non-specific binding. Binding reactions were assembled by combining kinase, liganded affinity beads, and test compounds in 1× binding buffer (20% SeaBlock, 0.17×PBS, 0.05% Tween 20, 6 mM DTT). Test compounds were prepared as 100× stocks in DMSO and diluted into the aqueous environment. Kds were determined using an eleven point threefold serial dilutions. DMSO or control compounds were was added to control assays lacking a test compound. Primary screen assays were performed in polypropylene 384-well plates in a final volume of 20-40 μL, while Kd determinations were performed in polystyrene 96-well plates in a final volume of 135 μL. The assay plates were incubated at room temperature with shaking for 1 hour to allow the binding reactions to reach equilibrium, and the affinity beads were washed extensively with wash buffer (1×PBS, 0.05% Tween 20) to remove unbound protein. The beads were then resuspended in elution buffer (1×PBS, 0.05% Tween 20, 0.5 μM non-biotinylated affinity ligand) and incubated at room temperature with shaking for 30 min. The kinase concentration in the eluates was measured by quantitative PCR.

The next assay has as its target T2, CSF-1R kinase (Homo sapiens, UniProt P07333).
T2 construct: made in house; host or cells: T7 phage display or HEK-293 cells
The experiment in a line: Competition binding assay, CSF-1R Kd. The procedure:
as §1, §2

For the next assay, the target named is T3, FLT3 kinase (Homo sapiens, UniProt P36888).
T3 construct: made in house; host or cells: T7 phage display or HEK-293 cells
T3 sequence (P36888 27-993): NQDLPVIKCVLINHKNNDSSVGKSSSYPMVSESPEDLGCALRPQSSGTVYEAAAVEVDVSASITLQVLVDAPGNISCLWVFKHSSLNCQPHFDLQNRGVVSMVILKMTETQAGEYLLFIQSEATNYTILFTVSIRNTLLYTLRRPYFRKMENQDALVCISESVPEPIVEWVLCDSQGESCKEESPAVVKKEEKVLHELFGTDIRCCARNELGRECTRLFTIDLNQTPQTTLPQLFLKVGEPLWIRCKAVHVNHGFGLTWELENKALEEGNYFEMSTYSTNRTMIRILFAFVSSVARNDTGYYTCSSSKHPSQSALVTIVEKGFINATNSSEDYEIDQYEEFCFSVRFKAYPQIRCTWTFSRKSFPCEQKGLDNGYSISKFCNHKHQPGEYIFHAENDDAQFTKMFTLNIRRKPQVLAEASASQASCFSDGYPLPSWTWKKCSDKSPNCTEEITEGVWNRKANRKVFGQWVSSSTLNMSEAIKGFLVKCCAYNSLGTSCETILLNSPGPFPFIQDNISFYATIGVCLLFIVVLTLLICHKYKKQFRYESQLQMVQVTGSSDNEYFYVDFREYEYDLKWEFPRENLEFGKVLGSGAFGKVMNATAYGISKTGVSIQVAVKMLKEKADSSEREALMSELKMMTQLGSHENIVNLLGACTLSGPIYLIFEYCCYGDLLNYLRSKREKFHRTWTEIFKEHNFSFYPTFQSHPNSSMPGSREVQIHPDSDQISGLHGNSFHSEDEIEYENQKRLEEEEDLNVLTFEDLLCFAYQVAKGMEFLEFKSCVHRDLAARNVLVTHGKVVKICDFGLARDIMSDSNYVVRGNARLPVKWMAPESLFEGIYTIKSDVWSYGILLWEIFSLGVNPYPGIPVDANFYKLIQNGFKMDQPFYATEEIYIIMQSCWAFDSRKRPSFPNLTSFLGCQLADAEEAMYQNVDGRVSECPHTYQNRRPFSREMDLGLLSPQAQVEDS
The experiment in a line: Competition binding assay, FLT3 Kd. The procedure:
as §1, §2

The test system of a further assay is MV4-11 cells. The assay is described as follows: MV4-11 cell proliferation assay (Alamar Blue). Format: cell-based. Particulars: Homo sapiens, MV4-11, 72 h, 3 days incubation. The method, then:
The compounds disclosed herein were tested in an MV4-11 cell proliferation assay to determine their cellular potency against Flt3. MV4-11 cells carry ITD mutation within juxtamembrane domain of Flt3 kinase which renders the kinase constitutively active. […] This assay measures the potency of compounds as Flt3 inhibitors by measuring the reduction of Alamar Blue reagent by viable cells.
MV4-11 cells were grown in an incubator at 37° C. under 5% CO2 in Iscove's media (Celgro) with 10% FBS. The cell density was kept between 1e5 and 8e5 cells/mL.
On day one of the experiment, cells were harvested and spun at 500 g for 5 min at 4° C., the supernatant aspirated and the cells resuspended in Iscove's media with 0.5% FBS. Cell density was maintained at 7.5e5 to achieve maximum viability of the cells. The resuspended cells were incubated at 37° C. in 5% CO2 overnight.
On day two of the experiment, cells were diluted to 6.4e5/mL with Iscove's media with 0.5% FBS. 100 μL of the cell suspension (64,000 cells) were aliquoted into each well of a 96-well TC-treated plate. Compounds were added at 9 different concentrations, with half-log intervals alongside a control reference compound serving as a positive control. Final DMSO concentration was kept at 0.5% and final volume at 200 μL. The cells were then incubated at 37° C. under 5% CO2 for 3 days.
On day five of the experiment, 40 μL of Alamar Blue reagent was added to each well and the mixture was allowed to incubate for 3 hours. Alamar Blue fluorescence was measured using SoftMax Pro software at 560 nm (excitation) and 590 nm (emission). IC50s were generated as an average of duplicates and represents the concentration of test compound that achieves 50% inhibition of cellular proliferation compared to negative control.
In general terms: The colour change of resazurin is a common sign of viable cells or microbes.

T1 sequence (P10721 26-976): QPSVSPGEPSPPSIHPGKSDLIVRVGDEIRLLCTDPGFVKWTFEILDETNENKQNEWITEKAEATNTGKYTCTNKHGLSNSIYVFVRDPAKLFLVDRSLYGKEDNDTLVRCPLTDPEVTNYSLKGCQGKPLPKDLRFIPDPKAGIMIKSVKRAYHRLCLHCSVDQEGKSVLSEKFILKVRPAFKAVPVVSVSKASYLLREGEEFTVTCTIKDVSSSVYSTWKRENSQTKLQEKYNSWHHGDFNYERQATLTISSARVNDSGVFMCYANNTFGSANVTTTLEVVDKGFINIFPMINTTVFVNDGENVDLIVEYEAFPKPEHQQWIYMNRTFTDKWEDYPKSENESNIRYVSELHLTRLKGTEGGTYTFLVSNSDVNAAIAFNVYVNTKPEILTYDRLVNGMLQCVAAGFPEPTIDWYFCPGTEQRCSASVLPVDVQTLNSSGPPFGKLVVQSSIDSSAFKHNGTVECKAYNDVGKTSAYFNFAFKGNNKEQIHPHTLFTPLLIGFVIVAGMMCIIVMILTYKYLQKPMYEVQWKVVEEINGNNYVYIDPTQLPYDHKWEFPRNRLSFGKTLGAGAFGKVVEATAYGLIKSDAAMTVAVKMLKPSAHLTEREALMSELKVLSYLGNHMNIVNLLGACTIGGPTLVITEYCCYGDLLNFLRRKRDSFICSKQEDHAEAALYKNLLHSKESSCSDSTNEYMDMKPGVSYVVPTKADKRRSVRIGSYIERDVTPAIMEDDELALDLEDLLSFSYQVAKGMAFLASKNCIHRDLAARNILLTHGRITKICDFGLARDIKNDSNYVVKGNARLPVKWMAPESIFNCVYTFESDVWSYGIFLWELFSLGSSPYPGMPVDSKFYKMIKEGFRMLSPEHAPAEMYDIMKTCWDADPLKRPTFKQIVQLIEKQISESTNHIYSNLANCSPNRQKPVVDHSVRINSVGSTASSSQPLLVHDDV
T2 sequence (P07333 20-972): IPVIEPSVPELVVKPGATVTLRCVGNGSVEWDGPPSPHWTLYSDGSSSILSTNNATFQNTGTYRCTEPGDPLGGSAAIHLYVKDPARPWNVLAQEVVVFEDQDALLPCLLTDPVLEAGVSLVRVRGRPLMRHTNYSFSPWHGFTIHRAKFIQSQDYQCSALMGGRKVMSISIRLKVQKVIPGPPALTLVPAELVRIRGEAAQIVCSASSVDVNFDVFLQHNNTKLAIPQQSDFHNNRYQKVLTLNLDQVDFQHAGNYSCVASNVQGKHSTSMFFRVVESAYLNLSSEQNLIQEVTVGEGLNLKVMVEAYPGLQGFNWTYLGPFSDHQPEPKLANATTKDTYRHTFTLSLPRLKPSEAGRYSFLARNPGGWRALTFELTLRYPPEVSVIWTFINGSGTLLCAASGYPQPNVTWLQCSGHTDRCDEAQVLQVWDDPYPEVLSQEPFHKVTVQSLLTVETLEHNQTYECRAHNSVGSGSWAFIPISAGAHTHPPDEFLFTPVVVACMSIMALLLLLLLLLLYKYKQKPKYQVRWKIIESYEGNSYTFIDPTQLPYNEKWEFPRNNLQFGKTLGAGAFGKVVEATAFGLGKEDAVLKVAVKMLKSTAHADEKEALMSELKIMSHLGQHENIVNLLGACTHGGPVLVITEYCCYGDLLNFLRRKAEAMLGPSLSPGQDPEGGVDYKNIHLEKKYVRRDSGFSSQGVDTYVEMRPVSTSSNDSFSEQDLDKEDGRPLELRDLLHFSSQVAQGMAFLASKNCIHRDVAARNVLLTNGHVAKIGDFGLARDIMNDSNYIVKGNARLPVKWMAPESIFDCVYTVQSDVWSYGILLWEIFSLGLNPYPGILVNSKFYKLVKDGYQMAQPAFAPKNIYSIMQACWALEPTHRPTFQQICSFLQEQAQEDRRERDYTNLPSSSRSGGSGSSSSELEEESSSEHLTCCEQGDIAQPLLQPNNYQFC

The Kd is the constant that tells how readily two partners part at equilibrium. Read a low Kd as a tighter complex. Usually IC50 stands for the concentration needed to halve the response being measured. Consider `CC(C(=O)Nc1cc(C(C)(C)C)on1)c1ccc(-c2ccc(N)nc2)cc1` (racemic) [Example 71, 2-(4-(6-aminopyridin-3-yl)phenyl)-N-(5-tert-butylisoxazol-3-yl) propanamide], for which the Kd at KIT kinase was 10 to 100 nM; at CSF-1R kinase, 10 to 100 nM; at FLT3 kinase, 1 to 10 nM. In the assay on MV4-11 cells, this molecule had an IC50 of 10 to 100 nM.
Regarding `CC(C)(C)c1cc(NC(=O)Nc2ccc(-c3ccc(NCCN4CCCCC4)nc3)cc2F)no1` [Example 27, 1-(5-tert-butylisoxazol-3-yl)-3-(2-fluoro-4-(6-(2-(piperidin-1-yl)ethylamino)pyridin-3-yl)phenyl)urea], the values for the Kd on KIT kinase, on CSF-1R kinase and at FLT3 kinase were ≤ 1 nM, ≤ 10 nM and ≤ 1 nM, respectively. In the assay with MV4-11 cells, this molecule showed an IC50 of 10 to 100 nM.
On to `CC(C)(C)c1cc(NC(=O)Nc2ccc(-c3ccc(NCCCN4CCOCC4)nc3)cc2)no1` [Example 28, 1-(5-tert-butylisoxazol-3-yl)-3-(4-(6-(3-morpholinopropylamino)pyridin-3-yl)phenyl)urea], for which the Kd on KIT kinase is ≤ 1 nM; at CSF-1R kinase, ≤ 10 nM; at FLT3 kinase, ≤ 1 nM. Besides, in the assay on MV4-11 cells, the IC50 was ≤ 1 nM.
For `CN1CCCC1CCNc1ccc(-c2ccc(NC(=O)Nc3cc(C(C)(C)C)on3)cc2)cn1` (centres unmarked) [Example 29, 1-(5-tert-butylisoxazol-3-yl)-3-(4-(6-(2-(1-methylpyrrolidin-2-yl)ethylamino)pyridin-3-yl)phenyl)urea], the figures for the Kd at KIT kinase, at CSF-1R kinase and on FLT3 kinase were ≤ 1 nM, ≤ 10 nM and ≤ 1 nM, respectively. Moreover, the IC50 in the assay with MV4-11 cells is 1 to 10 nM.
`CCN1CCCC1CNc1ccc(-c2ccc(NC(=O)Nc3cc(C(C)(C)C)on3)cc2)cn1` (centres unmarked) [Example 30, 1-(5-tert-butylisoxazol-3-yl)-3-(4-(6-((1-ethylpyrrolidin-2-yl)methylamino)pyridin-3-yl)phenyl)urea]: the Kd is ≤ 1 nM at KIT kinase, 10 to 100 nM on CSF-1R kinase and 1 to 10 nM on FLT3 kinase. In the assay with MV4-11 cells, this molecule yielded an IC50 of 10 to 100 nM.
As for `CN(C(=O)Nc1cc(C(C)(C)C)on1)c1ccc(-c2ccc(N)nc2)cc1` [Example 31, 1-(4-(6-aminopyridin-3-yl)phenyl)-3-(5-tert-butylisoxazol-3-yl)-1-methylurea], the Kd on KIT kinase was ≤ 1 nM; at CSF-1R kinase it was ≤ 10 nM; on FLT3 kinase, ≤ 1 nM. For the same molecule, in the assay with MV4-11 cells, the IC50 was 10 to 100 nM.
With `CC(C)(F)c1cc(NC(=O)Nc2ccc(-c3ccc(N)nc3)cc2)on1` [Example 32, 5-(4-(3-(3-(2-fluoropropan-2-yl)isoxazol-5-yl)ureido)phenyl)pyridin-2-aminium methanesulfonate], the Kd at KIT kinase was ≤ 1 nM; on CSF-1R kinase, ≤ 10 nM; on FLT3 kinase it was ≤ 1 nM. In the assay on MV4-11 cells, the IC50 fell in the range of 1 to 10 nM.
Take `Nc1ccc(-c2ccc(NC(=O)Nc3cc(C4(C(F)(F)F)CC4)on3)cc2)cn1` [Example 33, 5-(4-(3-(5-(1-(trifluoromethyl)cyclopropyl)isoxazol-3-yl)ureido)phenyl)pyridin-2-aminium methanesulfonate]: the figures for the Kd on KIT kinase, at CSF-1R kinase and at FLT3 kinase were ≤ 1 nM, ≤ 10 nM and ≤ 1 nM, respectively. In addition, the IC50 in the assay on MV4-11 cells was ≤ 1 nM.
As for `CC(CF)(CF)c1cc(NC(=O)Nc2ccc(-c3ccc(N)nc3)cc2)no1` [Example 34, 5-(4-(3-(5-(1,3-difluoro-2-methylpropan-2-yl)isoxazol-3-yl)ureido)phenyl)pyridin-2-aminium methanesulfonate], the Kd is ≤ 1 nM on KIT kinase, ≤ 10 nM at CSF-1R kinase and ≤ 1 nM on FLT3 kinase. Moreover, the IC50 with MV4-11 cells was ≤ 1 nM.
For the molecule `CC(C)(c1cc(NC(=O)Nc2ccc(-c3ccc(N)nc3)cc2)no1)C(F)(F)F` [Example 35, methanesulfonate], the Kd at KIT kinase is 1 to 10 nM; at CSF-1R kinase, ≤ 10 nM; on FLT3 kinase it was ≤ 1 nM. The IC50 in the assay with MV4-11 cells is ≤ 1 nM.
Take `O=C(Nc1ccc(-c2ccc(NCCN3CCOCC3)nc2)cc1)Nc1cc(C2(C(F)(F)F)CC2)on1` [Example 36, 4-(2-(5-(4-(3-(5-(1-(trifluoromethyl)cyclopropyl)isoxazol-3-yl)ureido)phenyl)pyridin-2-ylamino)ethyl)morpholin-4-ium methanesulfonate]: the Kd is ≤ 1 nM at KIT kinase, ≤ 10 nM on CSF-1R kinase and ≤ 1 nM on FLT3 kinase. For the same molecule, the IC50 in the assay on MV4-11 cells lay within 1 to 10 nM.
Regarding `CC(CF)(CF)c1cc(NC(=O)Nc2ccc(-c3ccc(NCCN4CCOCC4)nc3)cc2)no1` [Example 37, 4-(2-(5-(4-(3-(5-(1,3-difluoro-2-methylpropan-2-yl)isoxazol-3-yl)ureido)phenyl)pyridin-2-ylamino)ethyl)morpholin-4-ium methanesulfonate], the Kd at KIT kinase was ≤ 1 nM; at CSF-1R kinase, ≤ 10 nM; at FLT3 kinase it was ≤ 1 nM. The same molecule registered an IC50 in the assay on MV4-11 cells of 1 to 10 nM.
As for `CC(C)(F)c1cc(NC(=O)Nc2ccc(-c3ccc(NCCN4CCOCC4)nc3)cc2)on1` [Example 38, 4,4-(2-(5-(4-(3-(3-(2-fluoropropan-2-yl)isoxazol-5-yl)ureido)phenyl)pyridin-2-ylamino)ethyl)morpholin-4-ium methanesulfonate], the Kd at KIT kinase is ≤ 1 nM; at CSF-1R kinase, ≤ 10 nM; at FLT3 kinase, 1 to 10 nM. Further, the IC50 in the assay with MV4-11 cells fell in the range of 10 to 100 nM.
As for `CS(=O)(=O)CCNc1ccc(-c2ccc(CC(=O)Nc3cc(C4(C(F)(F)F)CC4)on3)cc2)cn1` [Example 188], the Kd on KIT kinase was 1 to 10 nM; at CSF-1R kinase, 10 to 100 nM. In the assay on MV4-11 cells, the IC50 was ≤ 1 nM.
Turning to `Nc1cc(F)c(-c2ccc(CC(=O)Nc3cc(C4(C(F)(F)F)CC4)on3)cc2)cn1` [Example 189], the Kd was 1 to 10 nM on KIT kinase and ≤ 10 nM on CSF-1R kinase. The IC50 in the assay with MV4-11 cells was ≤ 1 nM.
Take `CC(C)(C)c1cc(NC(=O)Cc2ccc(-c3cnc4ccc(=O)[nH]c4c3)cc2)no1` [Example 191]: in the assay on MV4-11 cells, the IC50 was in the range of 1 to 10 nM.
